Laboratory results as given in paper PMC4363860 (Scientific Reports, 2015).
Where two headings read alike, the source gives them in different places. Where a SMILES comes first, the peptide text is derived from it. [ ]: non-standard residue; d: D form. The star is where a group is joined. Lauroyl = CCCCCCCCCCCC(=O)*; 12Ado = NCCCCCCCCCCCC(=O)O

Tests used:
[1] = system: panel of GNB: E. coli 35218, 14182, 16327, 16329, 14384, S. Typhimurium 14028, S. stanley 7308, K. pneumoniae 1287, KPC2; assay: MIC and chemo-sensitization, one result for the whole panel of GNB (Suppl. Table S1)
[2] = system: Human blood (red cells, 1% hematocrit); conditions: 3 h incubation in PBS 37°C; published data; cited from earlier work
Description: Table 1 Structure-activity study highlighting biophysical attributes of N-terminal OAK derivatives | column: LC50 ^d (μM)

[3] = system: Klebsiella; assay: MIC (Suppl. Figs S2, S3); assay type: cell-based
[4] = system: E. coli; assay: MIC and reciprocal sensitization (Fig. 2a,b; Suppl. Figs S2, S3); assay type: cell-based, Escherichia coli
[5] = one value for all nine listed strains
[6] = one value for all nine listed strains, OAK 1.25 µg/ml
[7] = one value for all nine listed strains, OAK 2.5 µg/ml
[8] = one value for all nine listed strains, OAK 5 µg/ml

CC1(C)S[C@@H]2[C@H](NC(=O)Cc3ccccc3)C(=O)N2[C@H]1C(=O)O [Penicillin G, penicillin G]
SF, sensitization factor, penicillin G with C10KKc12K [1, 5]: 1
SF, sensitization factor, penicillin G with C12(ω7)KKc12K [1, 5]: 1
MIC of penicillin G in presence of C10KKc12K [1, 6]: > 512 µg/mL
MIC of penicillin G in presence of C12(ω7)KKc12K [1, 6]: > 512 µg/mL
MIC of penicillin G in presence of C10KKc12K [1, 7]: > 512 µg/mL
MIC of penicillin G in presence of C12(ω7)KKc12K [1, 7]: > 512 µg/mL
MIC of penicillin G in presence of C10KKc12K [1, 8]: > 512 µg/mL
MIC of penicillin G in presence of C12(ω7)KKc12K [1, 8]: > 512 µg/mL
MIC ([1]; read-out: MIC of penicillin G in presence of C10KKc12K): > 512 µg/mL
MIC ([1]; read-out: MIC of penicillin G in presence of C12(ω7)KKc12K): > 512 µg/mL

CCCCCCCCCCCC(=O)N[C@@H](CCCCN)C(=O)N[C@@H](CCCCN)C(=O)NCCCCCCCCCCCC(=O)N[C@@H](CCCCN)C(N)=O [C12X] (Lauroyl-KK[12Ado]K-NH2)
LC50, OAK concentration that induced 50% hemolysis [2]: 29 ± 9 µM

NCCCC[C@H](NC(=O)CCCCCCCCCCCNC(=O)[C@H](CCCCN)NC(=O)[C@@H](N)CCCCN)C(N)=O [X, lysyl-lysyl-aminododecanoyl-lysyl-amide] (H-KK[12Ado]K-NH2)
LC50, OAK concentration that induced 50% hemolysis [2]: >100 µM

CC[C@H]1OC(=O)[C@H](C)[C@@H](O[C@H]2C[C@@](C)(OC)[C@@H](O)[C@H](C)O2)[C@H](C)[C@@H](O[C@@H]2O[C@H](C)C[C@H](N(C)C)[C@H]2O)[C@](C)(O)C[C@@H](C)C(=O)[C@H](C)[C@@H](O)[C@]1(C)O [erythromycin]
standalone antibiotic MIC [3]: 512 µg/mL
standalone antibiotic MIC [4]: 512 µg/mL
